Assay results as given in article PMC3961306, “Comparison of the Cancer Gene Targeting and Biochemical Selectivities of All Targeted Kinase Inhibitors Approved for Clinical Use” (PLoS ONE, 2014).

Assays:
Test in all cases: Kinase profiling in a biochemical assay panel (mobility shift assays and ELISA), %-inhibition at 1 μM; selectivity entropy
[1] = target: panel of more than 300 wild-type and mutant kinases (313 kinase panel) (Homo sapiens, UniProt P41279)
[2] = target: T1, panel of more than 300 wild-type and mutant kinases (313 kinase panel) (Homo sapiens, UniProt O43781)
T1 sequence (O43781 1-588): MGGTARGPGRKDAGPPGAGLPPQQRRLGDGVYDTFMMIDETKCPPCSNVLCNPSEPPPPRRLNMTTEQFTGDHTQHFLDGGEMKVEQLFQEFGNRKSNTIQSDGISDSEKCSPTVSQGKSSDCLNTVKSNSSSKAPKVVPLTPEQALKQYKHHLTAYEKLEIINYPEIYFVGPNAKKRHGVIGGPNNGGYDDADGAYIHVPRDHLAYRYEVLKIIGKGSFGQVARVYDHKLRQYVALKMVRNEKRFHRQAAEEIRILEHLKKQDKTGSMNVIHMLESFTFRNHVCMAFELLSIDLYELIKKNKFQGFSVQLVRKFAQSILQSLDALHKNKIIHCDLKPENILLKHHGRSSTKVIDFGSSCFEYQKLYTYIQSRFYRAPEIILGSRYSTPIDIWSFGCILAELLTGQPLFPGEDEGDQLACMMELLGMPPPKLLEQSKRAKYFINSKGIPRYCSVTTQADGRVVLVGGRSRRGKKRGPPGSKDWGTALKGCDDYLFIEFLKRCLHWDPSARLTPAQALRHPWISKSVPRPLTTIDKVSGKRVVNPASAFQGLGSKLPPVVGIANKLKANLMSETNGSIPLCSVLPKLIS

[3] = target: panel of more than 300 wild-type and mutant kinases (313 kinase panel) (Homo sapiens, UniProt P22455, V550L); conditions: kinase FGFR4(V550L); compound at 1 μM
[4] = target: panel of more than 300 wild-type and mutant kinases (313 kinase panel) (Homo sapiens, UniProt Q9UK32)
[5] = target: panel of more than 300 wild-type and mutant kinases (313 kinase panel) (Homo sapiens, UniProt P10721, V654A)
[6] = target: panel of more than 300 wild-type and mutant kinases (313 kinase panel) (Homo sapiens, UniProt O75582)
[7] = target: T2, panel of more than 300 wild-type and mutant kinases (313 kinase panel) (Homo sapiens, UniProt P54760)
T2 sequence (P54760 16-987): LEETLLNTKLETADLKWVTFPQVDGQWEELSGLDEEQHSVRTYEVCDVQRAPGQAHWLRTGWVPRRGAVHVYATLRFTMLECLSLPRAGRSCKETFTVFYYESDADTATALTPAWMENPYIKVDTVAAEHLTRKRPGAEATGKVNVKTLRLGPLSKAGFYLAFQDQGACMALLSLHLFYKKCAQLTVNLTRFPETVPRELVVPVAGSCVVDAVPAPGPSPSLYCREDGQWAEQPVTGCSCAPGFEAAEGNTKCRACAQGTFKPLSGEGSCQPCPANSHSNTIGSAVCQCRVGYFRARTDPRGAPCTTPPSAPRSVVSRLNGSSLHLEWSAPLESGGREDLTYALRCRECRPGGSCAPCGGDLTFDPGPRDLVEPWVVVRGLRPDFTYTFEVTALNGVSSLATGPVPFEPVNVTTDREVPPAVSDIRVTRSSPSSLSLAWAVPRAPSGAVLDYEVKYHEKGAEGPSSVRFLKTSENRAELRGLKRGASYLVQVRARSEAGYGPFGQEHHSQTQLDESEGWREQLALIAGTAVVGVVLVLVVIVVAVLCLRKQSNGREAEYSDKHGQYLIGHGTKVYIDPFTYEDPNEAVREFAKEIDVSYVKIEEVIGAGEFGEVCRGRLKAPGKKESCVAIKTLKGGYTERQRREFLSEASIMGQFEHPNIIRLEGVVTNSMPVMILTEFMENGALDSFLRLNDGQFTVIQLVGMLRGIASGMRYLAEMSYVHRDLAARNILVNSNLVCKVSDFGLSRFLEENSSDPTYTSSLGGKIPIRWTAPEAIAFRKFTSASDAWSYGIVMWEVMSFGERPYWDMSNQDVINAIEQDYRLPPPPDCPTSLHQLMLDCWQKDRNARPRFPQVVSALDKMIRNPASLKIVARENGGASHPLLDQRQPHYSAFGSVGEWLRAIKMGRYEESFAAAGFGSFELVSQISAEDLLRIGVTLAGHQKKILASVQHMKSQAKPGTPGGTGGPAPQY

[8] = target: T3, panel of more than 300 wild-type and mutant kinases (313 kinase panel) (Homo sapiens, UniProt Q16566)
T3 sequence (Q16566 1-473): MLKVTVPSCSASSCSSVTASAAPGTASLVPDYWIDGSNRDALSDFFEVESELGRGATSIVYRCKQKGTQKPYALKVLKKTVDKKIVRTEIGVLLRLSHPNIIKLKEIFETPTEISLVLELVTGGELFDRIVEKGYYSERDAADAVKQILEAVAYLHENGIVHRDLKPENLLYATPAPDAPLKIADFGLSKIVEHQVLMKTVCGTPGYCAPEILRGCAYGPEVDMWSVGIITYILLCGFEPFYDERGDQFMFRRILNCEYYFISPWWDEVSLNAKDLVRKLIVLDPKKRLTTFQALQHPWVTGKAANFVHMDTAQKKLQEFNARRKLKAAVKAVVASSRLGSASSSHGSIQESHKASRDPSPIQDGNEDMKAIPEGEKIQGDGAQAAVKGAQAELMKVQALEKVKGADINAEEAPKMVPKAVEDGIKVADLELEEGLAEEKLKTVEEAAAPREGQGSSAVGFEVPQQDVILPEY

[9] = target: panel of more than 300 wild-type and mutant kinases (313 kinase panel) (Homo sapiens, UniProt Q9H1R3)
[10] = kinase KIT(V654A), compound at 1 μM

panel of more than 300 wild-type and mutant kinases (313 kinase panel) (Homo sapiens, UniProt Q9UK32), sequence (Q9UK32 whole entry, stated change not applied): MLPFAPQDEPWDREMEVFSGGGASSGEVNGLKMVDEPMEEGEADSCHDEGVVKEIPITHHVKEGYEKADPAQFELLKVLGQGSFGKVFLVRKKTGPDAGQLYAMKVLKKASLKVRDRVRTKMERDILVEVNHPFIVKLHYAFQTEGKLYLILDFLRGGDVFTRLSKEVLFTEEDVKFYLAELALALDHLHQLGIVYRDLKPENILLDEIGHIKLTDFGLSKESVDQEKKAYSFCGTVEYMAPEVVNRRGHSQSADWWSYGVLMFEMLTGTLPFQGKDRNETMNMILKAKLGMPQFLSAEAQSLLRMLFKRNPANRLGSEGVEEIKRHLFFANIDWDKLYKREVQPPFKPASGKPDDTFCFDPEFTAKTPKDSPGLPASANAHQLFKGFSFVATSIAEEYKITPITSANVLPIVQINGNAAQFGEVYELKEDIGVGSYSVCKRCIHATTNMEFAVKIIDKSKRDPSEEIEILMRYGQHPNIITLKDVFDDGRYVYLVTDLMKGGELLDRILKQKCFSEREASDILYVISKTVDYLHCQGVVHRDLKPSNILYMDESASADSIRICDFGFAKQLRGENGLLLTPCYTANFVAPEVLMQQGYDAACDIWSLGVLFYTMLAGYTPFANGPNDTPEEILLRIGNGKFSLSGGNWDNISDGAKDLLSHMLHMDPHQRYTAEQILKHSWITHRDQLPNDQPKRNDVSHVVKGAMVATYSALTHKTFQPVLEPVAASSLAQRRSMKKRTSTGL
panel of more than 300 wild-type and mutant kinases (313 kinase panel) (Homo sapiens, UniProt P10721, V654A), sequence (P10721 26-976 V654A): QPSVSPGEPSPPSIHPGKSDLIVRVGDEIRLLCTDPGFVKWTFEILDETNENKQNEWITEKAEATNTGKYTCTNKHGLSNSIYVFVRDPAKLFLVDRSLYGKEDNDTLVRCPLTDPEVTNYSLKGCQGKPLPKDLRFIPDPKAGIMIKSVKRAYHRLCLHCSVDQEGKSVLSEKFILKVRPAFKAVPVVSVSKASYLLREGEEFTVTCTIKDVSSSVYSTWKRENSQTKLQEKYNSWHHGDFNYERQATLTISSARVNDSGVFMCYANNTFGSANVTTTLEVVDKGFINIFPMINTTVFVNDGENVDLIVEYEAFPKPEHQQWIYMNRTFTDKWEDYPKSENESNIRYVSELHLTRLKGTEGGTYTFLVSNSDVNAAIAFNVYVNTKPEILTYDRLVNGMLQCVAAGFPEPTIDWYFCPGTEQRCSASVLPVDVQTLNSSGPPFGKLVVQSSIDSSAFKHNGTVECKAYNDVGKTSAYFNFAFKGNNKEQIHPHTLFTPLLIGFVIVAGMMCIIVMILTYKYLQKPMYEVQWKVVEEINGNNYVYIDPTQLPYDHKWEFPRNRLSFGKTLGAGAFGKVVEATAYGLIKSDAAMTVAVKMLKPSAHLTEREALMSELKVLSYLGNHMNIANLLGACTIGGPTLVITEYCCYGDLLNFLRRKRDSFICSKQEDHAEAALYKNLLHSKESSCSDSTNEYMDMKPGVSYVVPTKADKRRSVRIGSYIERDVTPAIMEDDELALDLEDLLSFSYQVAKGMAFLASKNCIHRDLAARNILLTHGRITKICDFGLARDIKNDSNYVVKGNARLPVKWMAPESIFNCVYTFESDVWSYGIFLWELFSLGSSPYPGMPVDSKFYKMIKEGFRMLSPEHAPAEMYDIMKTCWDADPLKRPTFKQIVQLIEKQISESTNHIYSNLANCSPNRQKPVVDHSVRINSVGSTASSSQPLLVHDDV
panel of more than 300 wild-type and mutant kinases (313 kinase panel) (Homo sapiens, UniProt P41279), sequence (P41279 whole entry, change not shown): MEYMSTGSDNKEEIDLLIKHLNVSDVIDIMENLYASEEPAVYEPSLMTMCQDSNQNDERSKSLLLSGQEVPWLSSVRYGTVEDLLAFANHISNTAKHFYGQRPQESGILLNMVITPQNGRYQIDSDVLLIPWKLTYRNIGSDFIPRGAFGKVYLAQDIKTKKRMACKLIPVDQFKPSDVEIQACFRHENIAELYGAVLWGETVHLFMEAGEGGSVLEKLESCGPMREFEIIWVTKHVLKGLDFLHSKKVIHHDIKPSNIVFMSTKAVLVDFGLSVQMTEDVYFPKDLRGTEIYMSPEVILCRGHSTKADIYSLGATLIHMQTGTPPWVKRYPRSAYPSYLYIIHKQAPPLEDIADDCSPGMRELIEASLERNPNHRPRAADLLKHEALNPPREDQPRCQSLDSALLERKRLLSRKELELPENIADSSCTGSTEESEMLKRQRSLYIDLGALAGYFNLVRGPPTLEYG
panel of more than 300 wild-type and mutant kinases (313 kinase panel) (Homo sapiens, UniProt P22455, V550L), sequence (P22455 22-802 V550L): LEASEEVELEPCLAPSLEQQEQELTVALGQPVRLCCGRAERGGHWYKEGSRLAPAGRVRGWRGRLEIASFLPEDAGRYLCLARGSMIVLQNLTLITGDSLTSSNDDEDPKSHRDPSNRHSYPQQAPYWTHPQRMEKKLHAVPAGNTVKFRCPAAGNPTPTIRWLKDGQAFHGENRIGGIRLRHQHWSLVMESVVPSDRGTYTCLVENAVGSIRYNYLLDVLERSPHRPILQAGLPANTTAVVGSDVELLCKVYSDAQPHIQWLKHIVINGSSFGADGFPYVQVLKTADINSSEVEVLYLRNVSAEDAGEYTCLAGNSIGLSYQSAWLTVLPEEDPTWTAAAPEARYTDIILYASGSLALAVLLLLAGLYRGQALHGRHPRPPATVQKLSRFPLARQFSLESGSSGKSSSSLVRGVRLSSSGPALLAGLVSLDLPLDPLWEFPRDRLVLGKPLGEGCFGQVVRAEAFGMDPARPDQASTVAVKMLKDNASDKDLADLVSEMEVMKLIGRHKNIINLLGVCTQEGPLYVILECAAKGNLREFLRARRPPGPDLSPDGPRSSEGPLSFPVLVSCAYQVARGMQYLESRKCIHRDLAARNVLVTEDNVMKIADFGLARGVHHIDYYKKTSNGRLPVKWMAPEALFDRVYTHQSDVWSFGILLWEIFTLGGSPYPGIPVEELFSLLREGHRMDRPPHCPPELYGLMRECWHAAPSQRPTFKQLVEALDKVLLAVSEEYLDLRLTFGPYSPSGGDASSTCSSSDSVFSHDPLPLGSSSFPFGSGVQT

Row | Compound | %-inhibition of COT ([1]; kinase COT, compound at 1 μM) [%] | %-inhibition of DYRK3 ([2]; kinase DYRK3, compound at 1 μM) [%] | %-inhibition of FGFR4(V550L) [3] [%] | %-inhibition of RSK4 ([4]; kinase RSK4, 1 μM) [%] | %-inhibition of KIT(V654A) [5, 10] [%] | %-inhibition of MSK1 ([6]; kinase MSK1, 1 μM) [%] | %-inhibition of EPHB4 ([7]; kinase EPHB4, compound at 1 μM) [%] | %-inhibition, CaMK4 ([8]; kinase CaMK4, 1 μM compound) [%] | %-inhibition of skMLCK ([9]; kinase skMLCK, 1 μM) [%] | %-inhibition of COT ([1]; 1 µM) [%] | %-inhibition of DYRK3 ([2]; 1 µM) [%] | %-inhibition, CaMK4 ([8]; 1 µM) [%] | %-inhibition of RSK4 ([4]; 1 µM) [%] | %-inhibition of KIT(V654A) ([5]; 1 µM) [%] | %-inhibition of MSK1 ([6]; 1 µM) [%] | %-inhibition of EPHB4 ([7]; 1 µM) [%] | %-inhibition of skMLCK ([9]; 1 µM) [%]
1 | C[C@@H](Oc1cc(-c2cnn(C3CCNCC3)c2)cnc1N)c1c(Cl)ccc(F)c1Cl [crizotinib] | 11 | 14 | 0.45 | -1.58 | -3.75 | -0.641 | 83 |  |  |  |  |  |  |  |  |  | 
2 | CC(C)(C)c1nc(-c2cccc(NS(=O)(=O)c3c(F)cccc3F)c2F)c(-c2ccnc(N)n2)s1 [dabrafenib] | 9 | -5.68 | -1.08 | 2.2 | -3.17 | 0.0759 |  | 78 | 0.52 |  |  |  |  |  |  |  | 
3 | COc1cc2c(Nc3ccc(Br)cc3F)ncnc2cc1OCC1CCN(C)CC1 [vandetanib] | -2.53 | -5 | -4.72 | 5.43 |  | -0.384 |  | -3 | 13 |  |  |  |  |  |  |  | 
4 | O=S(=O)(c1cccc2cnccc12)N1CCCNCC1 [fasudil] | 12 | 26 |  | 16 | -4 | 37 | -5.34 | -5.66 | -1.56 |  |  |  |  |  |  |  | 
5 | C#Cc1cccc(Nc2ncnc3cc(OCCOC)c(OCCOC)cc23)c1 [erlotinib] |  |  |  |  |  |  |  |  |  | -0.486 | 22 | 2 | 8 | 1.65 | 9 | 33 | 19
6 | COc1cc2nccc(Oc3ccc(NC(=O)C4(C(=O)Nc5ccc(F)cc5)CC4)cc3)c2cc1OC [cabozantinib] | 18 | 4 | -1.35 | -3.65 | 97 | -2 | 96 | -10 | 12 |  |  |  |  |  |  |  | 
7 | Cc1ccc(C(=O)Nc2ccc(CN3CCN(C)CC3)c(C(F)(F)F)c2)cc1C#Cc1cnc2cccnn12 [ponatinib] | -2.42 | 50 | 20 | 13 |  |  | 101 | -1.51 | 36 |  |  |  |  |  |  |  | 
8 | CCCS(=O)(=O)Nc1ccc(F)c(C(=O)c2c[nH]c3ncc(-c4ccc(Cl)cc4)cc23)c1F [vemurafenib] | 4.34 | 5 | 0.45 | -3 | -1.8 | 0.256 | 3.73 | -2.38 | 53 |  |  |  |  |  |  |  | 
9 | CCN(CC)CCNC(=O)c1c(C)[nH]c(/C=C2\C(=O)Nc3ccc(F)cc32)c1C [sunitinib] |  |  |  |  |  |  |  | 26 | 91 |  |  |  |  |  |  |  | 
10 | Cc1cn(-c2cc(NC(=O)c3ccc(C)c(Nc4nccc(-c5cccnc5)n4)c3)cc(C(F)(F)F)c2)cn1 [nilotinib] | 2.3 | -1.09 |  | 11 |  | 2.48 |  | 3.54 | -14 |  |  |  |  | 19 |  | 91 | 
11 | CS(=O)(=O)CCNCc1ccc(-c2ccc3ncnc(Nc4ccc(OCc5cccc(F)c5)c(Cl)c4)c3c2)o1 [lapatinib] | -0.221 | -2.24 |  |  |  | 7 | -0.865 |  | 2.11 |  |  | -4.44 | 2.39 |  |  |  | 
12 | CNC(=O)c1cc(Oc2ccc(NC(=O)Nc3ccc(Cl)c(C(F)(F)F)c3)c(F)c2)ccn1 [regorafenib] | -4 | 15 | 3.37 | -1.19 |  | 1 | 80 | -0.0486 | 6.59 |  |  |  |  |  |  |  | 
13 | Cc1ccc(Nc2nccc(N(C)c3ccc4c(C)n(C)nc4c3)n2)cc1S(N)(=O)=O [pazopanib] | -0.233 | -4.54 |  | 10 | 87 | 0.901 | 16 | -1.08 |  |  |  |  |  |  |  |  | 
14 | COc1cc(Nc2c(C#N)cnc3cc(OCCCN4CCN(C)CC4)c(OC)cc23)c(Cl)cc1Cl [bosutinib] | 7 | 12 | -7 | 43 | 8 |  | 96 |  | 71 |  |  |  |  |  |  |  | 
15 | CN(C)C/C=C/C(=O)Nc1cc2c(Nc3ccc(F)c(Cl)c3)ncnc2cc1O[C@H]1CCOC1 [afatinib] | -7.4 | 29 |  |  |  |  |  |  |  |  |  |  |  |  |  |  | 
